{"source": "the C3SDB collision cross section collection", "note": "Values joined by “and” are separate entries in the source; they are usually repeats but may differ in a detail not shown here. Identical values can stand only once.", "data": [{"settings": "[M+H]+; instrument: TW; calibrated with polyalanine and drug standards", "values": [{"smiles": "CCn1cc(C(=O)O)c(=O)c2cc(F)c(N3CCNCC3)nc21", "note": "[ENOXACIN]", "collision cross section (N2)": "168.1 Å² and 184.7 Å²"}, {"smiles": "CCN1CCN(c2cc3c(cc2F)c(=O)c(C(=O)O)cn3C2CC2)CC1", "note": "[ENROFLOXACIN]", "collision cross section (N2)": "190.6 Å²"}, {"smiles": "CCC(C)C(=O)O[C@@H]1C[C@@]2(C)[C@H](c3ccoc3)OC(=O)CC23OC2(C)OC34[C@H](OC(=O)C(C)C)[C@@]3(O)[C@@H](OC(=O)C5(C)OC5C)[C@@]5(C)C[C@]3(O)[C@@](C)([C@H]5CC(=O)OC)C14O2", "note": "(stereo partly specified) [ENTANDROPHRAGMIN]", "collision cross section (N2)": "259.8 Å²"}, {"smiles": "O=C(O[C@@H]1Cc2c(O)cc(O)cc2O[C@@H]1c1ccc(O)c(O)c1)c1cc(O)c(O)c(O)c1", "note": "[EPICATECHIN MONOGALLATE]", "collision cross section (N2)": "202.9 Å²"}, {"smiles": "CCN(CC)C(=O)c1ccc(O)c(OC)c1", "note": "[ETHAMIVAN]", "collision cross section (N2)": "149 Å²"}, {"smiles": "CCc1cc(C(N)=S)ccn1", "note": "[ETHIONAMIDE]", "collision cross section (N2)": "135.8 Å²"}, {"smiles": "CCOc1ccc2c(c1)C(C)=CC(C)(C)N2", "note": "[ETHOXYQUIN]", "collision cross section (N2)": "152.6 Å²"}, {"smiles": "CCOC(=O)c1ccc(O)cc1", "note": "[ETHYL PARABEN]", "collision cross section (N2)": "125.4 Å²"}, {"smiles": "CCOC(=O)c1cncn1C(C)c1ccccc1", "note": "(stereo unspecified) [ETOMIDATE]", "collision cross section (N2)": "155.9 Å²"}, {"smiles": "CC(=O)OCC(CCn1cnc2cnc(N)nc21)COC(C)=O", "note": "[FAMCICLOVIR]", "collision cross section (N2)": "168.4 Å²"}, {"smiles": "Cc1nc(-c2ccc(OCC(C)C)c(C#N)c2)sc1C(=O)O", "note": "[FEBUXOSTAT]", "collision cross section (N2)": "180.6 Å²"}, {"smiles": "COC(=O)Nc1nc2ccc(Sc3ccccc3)cc2[nH]1", "note": "[FENBENDAZOLE]", "collision cross section (N2)": "170.8 Å²"}, {"smiles": "CCC(C(N)=O)c1ccccc1", "note": "(stereo unspecified) [FENBUTYRAMIDE]", "collision cross section (N2)": "135.8 Å²"}, {"smiles": "CC1(C)OC(=O)C(OCC2CC2)=C1c1ccc(S(C)(=O)=O)cc1", "note": "[FIROCOXIB]", "collision cross section (N2)": "181.1 Å²"}, {"smiles": "COC(=O)C[C@H]1C(C)(C)[C@H](OC(C)=O)[C@@H]2CC3=C4CC(=O)O[C@@H](c5ccoc5)[C@]4(C)CC[C@@H]3C1(C)C2=O", "note": "[FISSINOLIDE]", "collision cross section (N2)": "213.3 Å²"}, {"smiles": "OC(Cn1cncn1)(Cn1cncn1)c1ccc(F)cc1F", "note": "[FLUCONAZOLE]", "collision cross section (N2)": "163.4 Å²"}, {"smiles": "Nc1[nH]c(=O)ncc1F", "note": "[FLUCYTOSINE]", "collision cross section (N2)": "118.4 Å²"}, {"smiles": "COc1ccc(-c2coc3cc(O)ccc3c2=O)cc1", "note": "[FORMONONETIN]", "collision cross section (N2)": "156.8 Å²"}, {"smiles": "CCOC(=O)c1ncn2c1CN(C)C(=O)c1cc(F)ccc1-2", "note": "[FUMAZENIL]", "collision cross section (N2)": "165.6 Å²"}, {"smiles": "NS(=O)(=O)c1cc(C(=O)O)c(NCc2ccco2)cc1Cl", "note": "[FUROSEMIDE]", "collision cross section (N2)": "169.3 Å²"}, {"smiles": "CC(C)=CCC[C@]1(C)C=Cc2c(O)c3c(c(CC=C(C)C)c2O1)O[C@]12C(=C[C@@H]4C[C@H]1C(C)(C)O[C@@]2(C/C=C(/C)C(=O)O)C4=O)C3=O", "note": "[GAMBOGIC ACID]", "collision cross section (N2)": "239 Å²"}, {"smiles": "N[C@@H](CCC(=O)N[C@@H](CS)C(=O)NCC(=O)O)C(=O)O", "note": "[GLUTATHIONE]", "collision cross section (N2)": "165.7 Å²"}, {"smiles": "C[C@H](CCC(=O)NCC(=O)O)[C@H]1CC[C@H]2[C@@H]3[C@H](O)C[C@@H]4C[C@H](O)CC[C@]4(C)[C@H]3C[C@H](O)[C@]12C", "note": "[GLYCOCHOLIC ACID]", "collision cross section (N2)": "205.2 Å²"}, {"smiles": "O=c1c(O)c(-c2ccc(O)c(O)c2)oc2c(O)c(O)cc(O)c12", "note": "[GOSSYPETIN]", "collision cross section (N2)": "165.9 Å²"}, {"smiles": "O=c1c(O)c(-c2ccc(O)c(O)c2)oc2c(O[C@@H]3O[C@H](CO)[C@@H](O)[C@H](O)[C@H]3O)c(O)cc(O)c12", "note": "[GOSSYPIN]", "collision cross section (N2)": "199.6 Å²"}, {"smiles": "CN(C)Cc1c[nH]c2ccccc12", "note": "[GRAMINE]", "collision cross section (N2)": "134.9 Å²"}, {"smiles": "COC1=CC(=O)C[C@@H](C)[C@]12Oc1c(Cl)c(OC)cc(OC)c1C2=O", "note": "[GRISEOFULVIN]", "collision cross section (N2)": "178.6 Å²"}, {"smiles": "CC1=C(CCC(=O)O)c2cc3nc(cc4[nH]c(cc5[nH]c(cc1n2)c(C)c5C(C)O)c(C)c4C(C)O)C(C)=C3CCC(=O)O", "note": "(stereo unspecified) [HAEMATOPORPHYRIN]", "collision cross section (N2)": "248.4 Å²"}, {"smiles": "CC1(C)O[C@@H]2C[C@H]3[C@@H]4CCC5=CC(=O)CC[C@]5(C)[C@@]4(F)[C@@H](O)C[C@]3(C)[C@]2(C(=O)CCl)O1", "note": "[HALCINONIDE]", "collision cross section (N2)": "200.9 Å²"}, {"smiles": "COc1ccc2c(c1)[nH]c1c(C)nccc12", "note": "[HARMINE]", "collision cross section (N2)": "144.5 Å²"}, {"smiles": "COc1ccc([C@@H]2CC(=O)c3c(O)cc(O)cc3O2)cc1O", "note": "[HESPERETIN]", "collision cross section (N2)": "169.1 Å²"}, {"smiles": "COc1cc(O)c2c(=O)cc(C)oc2c1CC=C(C)C", "note": "[HETEROPEUCENIN, METHYL ETHER]", "collision cross section (N2)": "161.7 Å²"}, {"smiles": "COc1ccc(-c2oc3cc(OC)c(OC)c(OC)c3c(=O)c2OC)cc1OC", "note": "[HEXAMETHYLQUERCETAGETIN]", "collision cross section (N2)": "191.2 Å²"}, {"smiles": "CCCCCCc1ccc(O)cc1O", "note": "[HEXYLRESORCINOL]", "collision cross section (N2)": "129 Å²"}, {"smiles": "C[C@]12CCC(=O)C=C1CC[C@@H]1[C@@H]2[C@@H](O)C[C@@]2(C)[C@H]1CC[C@]2(O)C(=O)COC(=O)CCC(=O)O", "note": "[HYDROCORTISONE HEMISUCCINATE]", "collision cross section (N2)": "212.4 Å²"}, {"smiles": "CCCCC(=O)O[C@]1(C(=O)CO)CC[C@H]2[C@@H]3CCC4=CC(=O)CC[C@]4(C)[C@H]3[C@@H](O)C[C@@]21C", "note": "[HYDROCORTISONE VALERATE]", "collision cross section (N2)": "212.5 Å²"}, {"smiles": "C[C@]12CCC(=O)C=C1CC[C@@H]1[C@@H]2[C@@H](O)C[C@@]2(C)[C@H]1CC[C@]2(O)C(=O)CO", "note": "[HYDROCORTISONE]", "collision cross section (N2)": "185.1 Å²"}, {"smiles": "CC(C)Cc1ccc(C(C)C(=O)O)cc1", "note": "(stereo unspecified) [IBUPROFEN]", "collision cross section (N2)": "144 Å²"}, {"smiles": "COc1ccc(-c2oc3c(CC=C(C)C)c(O[C@@H]4O[C@H](CO)[C@@H](O)[C@H](O)[C@H]4O)cc(O)c3c(=O)c2O[C@@H]2O[C@@H](C)[C@H](O)[C@@H](O)[C@H]2O)cc1", "note": "[ICARIIN]", "collision cross section (N2)": "260.8 Å²"}, {"smiles": "O=P1(NCCCl)OCCCN1CCCl", "note": "(stereo unspecified) [IFOSFAMIDE]", "collision cross section (N2)": "147 Å²"}, {"smiles": "COc1ccc2c(c1)c(CC(=O)O)c(C)n2C(=O)c1ccc(Cl)cc1", "note": "[INDOMETHACIN]", "collision cross section (N2)": "179 Å²"}, {"smiles": "CC(C(=O)O)c1ccc(N2Cc3ccccc3C2=O)cc1", "note": "(stereo unspecified) [INDOPROFEN]", "collision cross section (N2)": "166.6 Å²"}, {"smiles": "Oc1c(I)cc(I)c2cccnc12", "note": "[IODOQUINOL]", "collision cross section (N2)": "143.7 Å²"}, {"smiles": "COc1cc(-c2coc3cc(OCc4ccccc4)c(OC)c(O)c3c2=O)cc(O)c1OC", "note": "[IRIGENIN, 7-BENZYL ETHER]", "collision cross section (N2)": "198.6 Å² and 212.4 Å²"}, {"smiles": "COc1cc(-c2coc3cc(OCc4ccccc4)c(OC)c(O)c3c2=O)cc(OCc2ccccc2)c1OC", "note": "[IRIGENIN, DIBENZYL ETHER]", "collision cross section (N2)": "234.1 Å²"}, {"smiles": "C=C1CCC2C(CC2(C)C)C(=O)CCC1O", "note": "(stereo unspecified) [ISOKOBUSONE]", "collision cross section (N2)": "146 Å²"}, {"smiles": "CC(C)NCC(O)c1ccc(O)c(O)c1", "note": "(stereo unspecified) [ISOPROTERENOL]", "collision cross section (N2)": "149.4 Å²"}, {"smiles": "C/C=C/c1ccc2c(c1)OCO2", "note": "[ISOSAFROLE]", "collision cross section (N2)": "138.4 Å²"}, {"smiles": "CCC(C)n1ncn(-c2ccc(N3CCN(c4ccc(OCC5COC(Cn6cncn6)(c6ccc(Cl)cc6Cl)O5)cc4)CC3)cc2)c1=O", "note": "(stereo unspecified) [ITRACONAZOLE]", "collision cross section (N2)": "248.8 Å²"}, {"smiles": "O=c1c(O)c(-c2ccc(O)cc2)oc2cc(O)cc(O)c12", "note": "[KAEMPFEROL]", "collision cross section (N2)": "159.2 Å²"}, {"smiles": "COC1=CC(=O)O[C@@H](/C=C/c2ccccc2)C1", "note": "[KAWAIN]", "collision cross section (N2)": "149.4 Å²"}, {"smiles": "CC(C(=O)O)c1cccc(C(=O)c2ccccc2)c1", "note": "(stereo unspecified) [KETOPROFEN]", "collision cross section (N2)": "157.5 Å²"}, {"smiles": "O=c1cc(CO)occ1O", "note": "[KOJIC ACID]", "collision cross section (N2)": "121.9 Å²"}, {"smiles": "CC(=O)NCCc1ccc(O)c(-c2c(O)c(O)c3c(c2O)C(=O)c2c(cc(O)c(C(=O)O)c2C(=O)O)C3=O)c1", "note": "[LACCAIC ACID A]", "collision cross section (N2)": "218.5 Å²"}, {"smiles": "OC[C@H]1O[C@@H](O[C@@H]2[C@@H](CO)O[C@](O)(CO)[C@H]2O)[C@H](O)[C@@H](O)[C@H]1O", "note": "[LACTULOSE]", "collision cross section (N2)": "169.2 Å²"}, {"smiles": "CC(=O)O[C@H]1C[C@H](O[C@H]2[C@@H](O)C[C@H](O[C@H]3[C@@H](O)C[C@H](O[C@H]4CC[C@@]5(C)[C@H](CC[C@@H]6[C@@H]5C[C@@H](O)[C@]5(C)[C@@H](C7=CC(=O)OC7)CC[C@]65O)C4)O[C@@H]3C)O[C@@H]2C)O[C@H](C)[C@H]1O[C@@H]1O[C@H](CO)[C@@H](O)[C@H](O)[C@H]1O", "note": "[LANATOSIDE C]", "collision cross section (N2)": "289.4 Å²"}, {"smiles": "CCN1C[C@]2(OC(=O)c3ccccc3NC(C)=O)CC[C@H](OC)C34C1C(C[C@@H]32)[C@@]1(O)C[C@H](OC)[C@H]2C[C@@H]4[C@]1(O)[C@H]2OC", "note": "[LAPPACONITINE]", "collision cross section (N2)": "232.5 Å²"}]}, {"settings": "[M+Na]+; instrument: TW; calibrated with polyalanine and drug standards", "units": {"collision cross section (N2)": "Å²"}, "values": [{"smiles": "COc1ccc2c(c1OC)OC[C@@H](c1ccc(OC)c(OC)c1OC)C2", "note": "[DUARTIN, DIMETHYL ETHER]", "collision cross section (N2)": 183.2}, {"smiles": "C[C@H](CCC(=O)NCC(=O)O)[C@H]1CC[C@H]2[C@@H]3[C@H](O)C[C@@H]4C[C@H](O)CC[C@]4(C)[C@H]3C[C@H](O)[C@]12C", "note": "[GLYCOCHOLIC ACID]", "collision cross section (N2)": 200.8}, {"smiles": "COc1ccc([C@@H]2CC(=O)c3c(O)cc(O[C@@H]4O[C@H](CO[C@@H]5O[C@@H](C)[C@H](O)[C@@H](O)[C@H]5O)[C@@H](O)[C@H](O)[C@H]4O)cc3O2)cc1O", "note": "[HESPERIDIN]", "collision cross section (N2)": 227}]}, {"settings": "[M]+; instrument: TW; calibrated with polyalanine and drug standards", "units": {"collision cross section (N2)": "Å²"}, "values": [{"smiles": "O=C1OCCN1/N=C/c1ccc([N+](=O)[O-])o1", "note": "[FURAZOLIDONE]", "collision cross section (N2)": 144.2}]}]}
